We go through 14 molecules from patent publication US9079866B2, “Flap modulators” (JANSSEN PHARMACEUTICA NV, priority 2013, dated 2015).

Assay [1] has as its target human FLAP (Homo sapiens (Human), UniProt P20292). Kind of assay: FLAP binding assay (HTRF format). Conditions: wild type FLAP, HTRF format. In short, it runs like this: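 Samples were run in duplicate on each of two assay plates, the results were averaged, and the signal was expressed as an HTRF ratio.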
A general note: Time-resolved FRET reads energy transfer from a long-lived donor to a nearby acceptor.

In assay [2] the test system is leukotriene pathway in human whole blood (LTB4 levels). Briefly: Human whole blood assay (A23187-stimulated LTB4). The class given is cell-based. Conditions: Homo sapiens, human whole blood diluted 1:1, A23187-stimulated; read-out: LTB4 IC50 1:1. In short, it runs like this:
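Blood (heparin) diluted 1:1 RPMI; compound pre-incubation 15 min, 37° Celsius; A23187 7 μg/mL, 30 min, 37° Celsius; plasma LTB4 by commercial kit. IC50 via 4-parameter equation.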

Sequence of human FLAP (P20292 whole entry): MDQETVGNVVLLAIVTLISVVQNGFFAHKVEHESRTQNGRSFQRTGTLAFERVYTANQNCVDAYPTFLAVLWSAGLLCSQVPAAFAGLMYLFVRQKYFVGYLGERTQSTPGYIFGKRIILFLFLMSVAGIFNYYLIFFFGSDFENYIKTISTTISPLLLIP

For orientation: Ki means a dissociation constant, usually derived from enzyme kinetics or from competition with a known ligand. The term IC50 denotes the midpoint of a concentration-inhibition curve. The molecule `CC(C)Oc1ncccc1-c1ccc(-c2cnc(N)cn2)c(F)c1` [Example 401, 5-{2-Fluoro-4-[2-(1-methylethoxy)pyridin-3-yl]phenyl}pyrazin-2-amine] gave a Ki in assay [1] of 158 nM. Further, in assay [2], the IC50 came out at 538 nM.

The molecule `Nc1cnc(-c2ccc(-c3cccnc3OC3CCCC3)cc2F)cn1` [Example 402, 5-{4-[2-(Cyclopentyloxy)pyridin-3-yl]-2-fluorophenyl}pyrazin-2-amine] gave a Ki in assay [1] of 92 nM. The IC50 in assay [2] was found to be 522 nM.

`COc1ncccc1-c1ccc(-c2cnc(N)cn2)c(F)c1` [Example 404, 5-[2-Fluoro-4-(2-methoxypyridin-3-yl)phenyl]pyrazin-2-amine] gave a Ki in assay [1] of 155 nM. In addition, the IC50 in assay [2] amounted to 1490 nM.

Consider `Nc1cnc(-c2ccc(-c3cccnc3OC3CCC3)cc2F)cn1` [Example 405, 5-{4-[2-(Cyclobutyloxy)pyridin-3-yl]-2-fluorophenyl}pyrazin-2-amine], for which affinity in assay [1] was put at a Ki of 100 nM. The IC50 in assay [2] came out at 2710 nM.

Molecule `CC(C)(C)OC(=O)N1CCC(COc2ncccc2-c2ccc(-c3cnc(N)cn3)c(F)c2)C1` (stereo not shown) [Example 406, tert-Butyl 3-[({3-[4-(5-aminopyrazin-2-yl)-3-fluorophenyl]pyridin-2-yl}oxy)methyl]pyrrolidine-1-carboxylate] yielded a Ki in assay [1] of 135 nM. For the same molecule, the IC50 in assay [2] is 4310 nM.

As for `CC(C)Oc1ncccc1-c1ccc(-c2cnc(N)nc2)c(F)c1` [Example 408, 5-{2-Fluoro-4-[2-(1-methylethoxy)pyridin-3-yl]phenyl}pyrimidin-2-amine], the affinity in assay [1], expressed as Ki, was 128 nM. Further, in assay [2], the IC50 was determined as 1140 nM.

`N#Cc1nc(-c2ccc(-c3ccccc3S(=O)(=O)C3CC3)cc2F)cnc1N` [Example 411, 3-Amino-6-[2′-(cyclopropylsulfonyl)-3-fluorobiphenyl-4-yl]pyrazine-2-carbonitrile] returned a Ki in assay [1] of 36 nM. Further, in assay [2], the IC50 was 1970 nM.

Molecule `CC(C)(C)NS(=O)(=O)c1ccccc1-c1ccc(-c2ccc(N)nn2)c(F)c1` [Example 417, 4′-(6-Aminopyridazin-3-yl)-N-tert-butyl-3′-fluorobiphenyl-2-sulfonamide] gave a Ki in assay [1] of 108 nM. The IC50 in assay [2] was 726 nM.

With `CC(C)(C)NS(=O)(=O)c1ccccc1-c1ccc(-c2ccc3nccnc3c2)c(F)c1` [Example 420, N-tert-Butyl-3′-fluoro-4′-quinoxalin-6-ylbiphenyl-2-sulfonamide], the Ki in assay [1] amounted to 86 nM. Besides, in assay [2], the IC50 worked out at 3280 nM.

In assay [1], `CC(C)(C)NS(=O)(=O)c1ccccc1-c1ccc(-c2ccc3[nH]cnc3c2)c(F)c1` [Example 422, 4′-(1H-Benzimidazol-5-yl)-N-tert-butyl-3′-fluorobiphenyl-2-sulfonamide] had a Ki of 3 nM. Also, the IC50 in assay [2] turned out to be 146 nM.

In assay [1], `CNS(=O)(=O)c1ccccc1-c1ccc(-c2ccc3[nH]cnc3c2)c(F)c1` [Example 423, 4′-(1H-Benzimidazol-5-yl)-3′-fluoro-N-methylbiphenyl-2-sulfonamide] gave a Ki of 284 nM. Besides, the IC50 in assay [2] amounted to 4800 nM.

`CC(C)(C)NS(=O)(=O)c1ccccc1-c1ccc(-c2ccc3scnc3c2)c(F)c1` [Example 424, 4′-(1,3-Benzothiazol-5-yl)-N-tert-butyl-3′-fluorobiphenyl-2-sulfonamide]: affinity in assay [1] was put at a Ki of 10 nM. In addition, the IC50 in assay [2] is more than 10000 nM.

Consider `CC(C)(C)NS(=O)(=O)c1ccccc1-c1ccc(-c2cnc3cc[nH]c3c2)c(F)c1` [Example 425, N-tert-Butyl-3′-fluoro-4′-(1H-pyrrolo[3,2-b]pyridin-6-yl)biphenyl-2-sulfonamide], for which the Ki in assay [1] was 2 nM. For the same molecule, the IC50 in assay [2] was determined as 111 nM.

Regarding `CNS(=O)(=O)c1ccccc1-c1ccc(-c2cnc3[nH]ccc3c2)c(F)c1` [Example 426, 3′-Fluoro-N-methyl-4′-(1H-pyrrolo[2,3-b]pyridin-5-yl)biphenyl-2-sulfonamide], the Ki in assay [1] was 2 nM. Besides, in assay [2], the IC50 was determined as 73 nM.
